Source: patent US20240327353A1
Where two headings read alike, the source gives them in different places.

How the values were obtained:
5-HT2AR = biological target: T1, 5-HT2AR (Homo sapiens, UniProt P28223); assay: Radioligand binding (competitive displacement and saturation), cell membranes; settings: for Ki: pKi 5-HT2AR
T1 construct: host or cells: HEK293, transient
Description: (§1) Transfections were performed for 48 hours.

5-HT2BR [1] = biological target: T2, 5-HT2BR (Homo sapiens, UniProt P41595); assay: biochemical
5-HT2CR [2] = biological target: T3, 5-HT2CR (Homo sapiens, UniProt P28335); assay: Radioligand binding (competitive displacement and saturation), cell membranes
T3 sequence (P28335 33-458): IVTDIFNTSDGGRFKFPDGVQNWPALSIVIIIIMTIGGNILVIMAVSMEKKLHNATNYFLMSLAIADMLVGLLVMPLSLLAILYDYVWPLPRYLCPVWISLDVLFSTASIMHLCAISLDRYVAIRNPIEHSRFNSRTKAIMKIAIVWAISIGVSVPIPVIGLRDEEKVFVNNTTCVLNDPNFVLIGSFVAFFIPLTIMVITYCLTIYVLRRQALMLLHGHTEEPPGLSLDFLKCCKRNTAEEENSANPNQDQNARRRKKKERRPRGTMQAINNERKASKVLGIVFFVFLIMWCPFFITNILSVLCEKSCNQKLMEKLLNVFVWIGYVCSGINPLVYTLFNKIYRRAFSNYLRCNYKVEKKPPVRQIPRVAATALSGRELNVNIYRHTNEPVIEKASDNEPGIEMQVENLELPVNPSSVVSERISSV

D231F^5.35 5-HT2AR = D231F^5.35 5-HT2AR (Homo sapiens, UniProt P28223, D231F); assay: Exploratory saturation radioligand binding at point-mutated 5-HT2AR; settings: membranes of transfected HEK293 cells (FIGS. 14A-14D)
H1R = biological target: T4, H1R (Homo sapiens, UniProt P35367); assay: Radioligand binding (competitive displacement and saturation), cell membranes
T4 construct: host or cells: CHO, transient
Description: as §1

5-HT2CR [3] = biological target: T3, 5-HT2CR
human wild-type 5-HT2C = human wild-type 5-HT2C (Homo sapiens, UniProt P28335); assay: IP-One HTRF IP1 accumulation assay
5-HT2BR [4] = biological target: T2, 5-HT2BR
D2L = D2L (Homo sapiens, UniProt P14416); assay: Radioligand binding, cell membranes; settings: [^3H]spiperone; mean of n independent experiments
Description: as §1

D3 = D3 (Homo sapiens, UniProt P35462); assay: Radioligand binding, cell membranes
Description: as §1

5-HT7 = 5-HT7 (Homo sapiens, UniProt P34969); assay: Radioligand binding, cell membranes; settings: [^3H]5-CT; mean of n independent experiments
Description: as §1

5-HT1A = biological target: T5, 5-HT1A (Homo sapiens, UniProt P08908); assay: Radioligand binding, cell membranes; settings: [^3H]5-CT; mean of n independent experiments
T5 construct: host or cells: HEK293T, transient
T5 sequence (P08908 1-422): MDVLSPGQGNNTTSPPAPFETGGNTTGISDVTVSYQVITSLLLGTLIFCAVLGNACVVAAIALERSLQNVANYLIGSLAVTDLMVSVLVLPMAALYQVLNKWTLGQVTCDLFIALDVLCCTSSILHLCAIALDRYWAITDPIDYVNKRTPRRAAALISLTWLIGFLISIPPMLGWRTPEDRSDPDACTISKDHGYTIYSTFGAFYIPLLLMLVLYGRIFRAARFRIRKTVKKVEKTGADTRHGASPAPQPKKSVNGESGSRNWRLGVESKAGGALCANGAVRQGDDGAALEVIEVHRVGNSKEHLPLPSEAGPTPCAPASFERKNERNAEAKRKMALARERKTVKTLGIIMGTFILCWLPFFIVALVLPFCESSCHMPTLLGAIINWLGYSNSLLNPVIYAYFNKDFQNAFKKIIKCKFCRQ
Description: as §1

male C57BL/6J mice [5] = assay: Locomotor activity, compound alone (open field); format: in vivo; settings: 3 mg*kg^−1 s.c. (FIG. 3C)
male C57BL/6J mice [6] = assay: (±)-DOI-elicited head twitch response; settings: 1 mg*kg^−1 (±)-DOI s.c.; pretreatment s.c.; every dose tested (PIMA, (2S,4R)-2k 0.3 or 3 mg kg^−1; (2R,4R)-3h 3.0 or 5.6 mg kg^−1)
5-HT2BR [7] = biological target: T2, 5-HT2BR; assay: Radioligand binding (competitive displacement and saturation), cell membranes
α1B-adrenergic receptor = biological target: T6, α1B-adrenergic receptor (Homo sapiens, UniProt P35368)
T6 sequence (P35368 1-520): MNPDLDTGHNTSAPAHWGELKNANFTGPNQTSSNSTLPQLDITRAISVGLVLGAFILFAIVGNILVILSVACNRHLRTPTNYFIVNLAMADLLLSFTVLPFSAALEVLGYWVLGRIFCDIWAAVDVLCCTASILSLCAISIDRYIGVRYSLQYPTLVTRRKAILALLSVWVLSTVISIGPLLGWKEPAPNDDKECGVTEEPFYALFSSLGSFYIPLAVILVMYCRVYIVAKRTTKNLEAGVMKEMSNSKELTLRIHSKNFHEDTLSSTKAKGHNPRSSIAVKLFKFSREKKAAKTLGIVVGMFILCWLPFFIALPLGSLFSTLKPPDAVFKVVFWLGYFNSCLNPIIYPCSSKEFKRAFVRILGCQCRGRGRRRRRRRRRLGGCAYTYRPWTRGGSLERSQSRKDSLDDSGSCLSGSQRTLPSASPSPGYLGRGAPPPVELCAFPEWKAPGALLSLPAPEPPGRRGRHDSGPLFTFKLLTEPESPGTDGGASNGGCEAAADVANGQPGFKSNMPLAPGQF

human wild-type 5-HT2B = human wild-type 5-HT2B (Homo sapiens, UniProt P41595); assay: IP-One HTRF IP1 accumulation assay
C322K^6.34 5-HT2AR = biological target: T7, C322K^6.34 5-HT2AR (Homo sapiens, UniProt P28223, C322K); assay: IP1 accumulation assay, inverse agonism at constitutively activated receptor; format: cell-based
T7 construct: expressed in transfected cells; host or cells: clonal cells
Description: as §1

α1A-adrenergic receptor = biological target: T8, α1A-adrenergic receptor (Homo sapiens, UniProt P35348)
T8 sequence (P35348 1-466): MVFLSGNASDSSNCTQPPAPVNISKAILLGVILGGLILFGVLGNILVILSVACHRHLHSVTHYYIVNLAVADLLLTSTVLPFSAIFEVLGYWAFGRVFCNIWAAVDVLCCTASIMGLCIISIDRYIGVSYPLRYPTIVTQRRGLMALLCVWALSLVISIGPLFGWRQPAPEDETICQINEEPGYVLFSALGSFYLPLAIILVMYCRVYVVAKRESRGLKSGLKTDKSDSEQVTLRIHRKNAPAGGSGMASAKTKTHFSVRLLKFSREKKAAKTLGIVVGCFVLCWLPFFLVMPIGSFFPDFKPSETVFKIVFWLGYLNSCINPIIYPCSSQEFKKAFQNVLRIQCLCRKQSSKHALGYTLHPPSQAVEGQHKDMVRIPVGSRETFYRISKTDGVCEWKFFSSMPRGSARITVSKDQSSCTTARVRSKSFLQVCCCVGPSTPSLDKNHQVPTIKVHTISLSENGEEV

5-HT2CR [8] = biological target: T3, 5-HT2CR; assay: biochemical
[9] = displacement of [^3H]ketanserin, mean of n independent experiments, ± SD where n ≥ 5

T2 sequence (P41595 whole entry): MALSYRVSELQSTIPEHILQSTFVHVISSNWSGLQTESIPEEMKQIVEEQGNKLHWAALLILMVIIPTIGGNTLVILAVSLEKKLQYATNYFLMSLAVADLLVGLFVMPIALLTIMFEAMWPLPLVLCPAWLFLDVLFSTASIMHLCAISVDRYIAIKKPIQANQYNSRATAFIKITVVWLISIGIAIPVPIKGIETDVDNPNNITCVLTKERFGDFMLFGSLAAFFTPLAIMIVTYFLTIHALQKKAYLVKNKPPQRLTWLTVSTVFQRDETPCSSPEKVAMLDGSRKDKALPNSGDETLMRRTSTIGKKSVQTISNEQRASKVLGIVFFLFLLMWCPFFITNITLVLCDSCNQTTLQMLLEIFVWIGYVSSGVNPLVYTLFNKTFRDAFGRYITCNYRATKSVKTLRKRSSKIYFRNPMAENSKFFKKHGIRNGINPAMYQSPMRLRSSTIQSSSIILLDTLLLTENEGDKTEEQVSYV
human wild-type 5-HT2B, sequence (P41595 whole entry): as above
T4 sequence (P35367 whole entry): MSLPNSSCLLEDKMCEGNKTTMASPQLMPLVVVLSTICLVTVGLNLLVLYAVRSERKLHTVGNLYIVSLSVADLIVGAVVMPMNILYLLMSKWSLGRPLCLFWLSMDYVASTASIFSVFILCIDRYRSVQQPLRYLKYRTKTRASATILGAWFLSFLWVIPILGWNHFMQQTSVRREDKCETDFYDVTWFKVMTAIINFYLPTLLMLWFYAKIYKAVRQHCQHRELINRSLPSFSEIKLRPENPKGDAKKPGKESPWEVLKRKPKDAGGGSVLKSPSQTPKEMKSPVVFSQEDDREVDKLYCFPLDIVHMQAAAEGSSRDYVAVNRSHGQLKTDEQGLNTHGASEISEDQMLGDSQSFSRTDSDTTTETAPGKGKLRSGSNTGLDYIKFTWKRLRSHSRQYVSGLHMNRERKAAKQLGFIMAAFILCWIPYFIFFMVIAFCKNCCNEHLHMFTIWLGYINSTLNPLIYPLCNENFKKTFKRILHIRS
T1 sequence (P28223 whole entry): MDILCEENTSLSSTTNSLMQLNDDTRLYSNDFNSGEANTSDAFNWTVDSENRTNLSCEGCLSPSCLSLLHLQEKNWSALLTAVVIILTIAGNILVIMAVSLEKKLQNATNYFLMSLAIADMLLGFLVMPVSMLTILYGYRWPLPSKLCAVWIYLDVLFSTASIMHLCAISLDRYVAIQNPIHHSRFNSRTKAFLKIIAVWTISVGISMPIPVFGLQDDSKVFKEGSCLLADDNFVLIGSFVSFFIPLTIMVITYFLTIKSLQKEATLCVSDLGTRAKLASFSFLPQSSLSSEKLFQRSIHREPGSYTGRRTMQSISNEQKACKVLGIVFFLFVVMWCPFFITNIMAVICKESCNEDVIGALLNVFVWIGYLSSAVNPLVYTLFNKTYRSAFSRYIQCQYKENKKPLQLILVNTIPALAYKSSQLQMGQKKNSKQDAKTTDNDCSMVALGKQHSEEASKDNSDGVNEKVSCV
D2L, sequence (P14416 whole entry): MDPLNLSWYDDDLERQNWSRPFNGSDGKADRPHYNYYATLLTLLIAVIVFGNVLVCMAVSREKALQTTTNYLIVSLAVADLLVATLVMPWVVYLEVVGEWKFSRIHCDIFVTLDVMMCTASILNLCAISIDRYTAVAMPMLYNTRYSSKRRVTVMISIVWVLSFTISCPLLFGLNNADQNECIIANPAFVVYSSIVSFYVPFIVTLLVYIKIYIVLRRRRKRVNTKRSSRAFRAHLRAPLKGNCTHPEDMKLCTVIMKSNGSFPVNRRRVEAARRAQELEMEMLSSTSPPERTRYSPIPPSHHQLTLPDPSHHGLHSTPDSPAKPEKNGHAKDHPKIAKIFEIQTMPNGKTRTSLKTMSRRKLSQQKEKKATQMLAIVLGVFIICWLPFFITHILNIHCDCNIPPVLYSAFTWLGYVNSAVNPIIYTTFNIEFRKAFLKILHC
D3, sequence (P35462 whole entry): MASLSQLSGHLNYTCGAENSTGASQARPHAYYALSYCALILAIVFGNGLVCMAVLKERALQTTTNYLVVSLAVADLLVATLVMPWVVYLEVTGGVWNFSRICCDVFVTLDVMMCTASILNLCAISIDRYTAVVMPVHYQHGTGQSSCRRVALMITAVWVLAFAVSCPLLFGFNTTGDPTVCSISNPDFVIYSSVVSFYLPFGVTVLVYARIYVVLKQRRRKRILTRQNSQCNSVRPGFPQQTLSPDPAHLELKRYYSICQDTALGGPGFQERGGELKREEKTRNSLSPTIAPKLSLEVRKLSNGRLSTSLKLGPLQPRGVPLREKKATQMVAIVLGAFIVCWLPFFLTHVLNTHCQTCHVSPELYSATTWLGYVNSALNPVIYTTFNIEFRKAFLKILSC
T7 sequence (P28223 whole entry C322K): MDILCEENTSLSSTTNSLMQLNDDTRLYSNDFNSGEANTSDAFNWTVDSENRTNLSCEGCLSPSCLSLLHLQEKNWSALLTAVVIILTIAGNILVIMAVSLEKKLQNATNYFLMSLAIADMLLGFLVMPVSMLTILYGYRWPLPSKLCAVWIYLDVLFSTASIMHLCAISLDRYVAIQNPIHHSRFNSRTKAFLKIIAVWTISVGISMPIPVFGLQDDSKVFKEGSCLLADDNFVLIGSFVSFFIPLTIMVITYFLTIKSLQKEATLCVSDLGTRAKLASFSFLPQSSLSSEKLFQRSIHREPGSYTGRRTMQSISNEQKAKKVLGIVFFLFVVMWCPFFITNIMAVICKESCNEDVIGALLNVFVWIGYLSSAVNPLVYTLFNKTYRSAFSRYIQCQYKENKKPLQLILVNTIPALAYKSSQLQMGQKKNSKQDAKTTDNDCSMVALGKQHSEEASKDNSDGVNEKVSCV
D231F^5.35 5-HT2AR, sequence (P28223 whole entry D231F): as the sequence (P28223 whole entry C322K) above, with D231F, K322C counted along it
5-HT7, sequence (P34969 1-445 isoform P34969-2): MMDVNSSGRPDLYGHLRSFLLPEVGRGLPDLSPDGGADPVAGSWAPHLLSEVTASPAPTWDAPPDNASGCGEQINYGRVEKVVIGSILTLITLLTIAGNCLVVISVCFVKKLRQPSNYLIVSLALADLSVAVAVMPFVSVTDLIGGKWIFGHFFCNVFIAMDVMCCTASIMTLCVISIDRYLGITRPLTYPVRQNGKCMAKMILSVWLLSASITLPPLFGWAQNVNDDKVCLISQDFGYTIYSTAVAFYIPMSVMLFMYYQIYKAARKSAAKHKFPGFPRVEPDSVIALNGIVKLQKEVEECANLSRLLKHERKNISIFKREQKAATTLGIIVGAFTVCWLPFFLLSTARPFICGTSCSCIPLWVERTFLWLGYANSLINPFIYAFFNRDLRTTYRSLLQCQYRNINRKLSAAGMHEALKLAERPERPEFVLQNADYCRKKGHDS

Compound: CN(C)[C@@H]1Cc2ccccc2[C@H](c2cccc(Br)c2)C1 (single isomer, unassigned) [(2S,4S)-3a, Cis-4-(3-bromophenyl)-N, N-dimethyl-1,2,3,4-tetrahydronaphthalen-2-amine]
- pKi 5-HT2AR (5-HT2AR): 6.40^(2) 6.41-6.40 7.50^(3) 7.74-7.33
- Ki (5-HT2BR [1]): 0.389 µM
- pKi 5-HT2CR (5-HT2CR [2]): 6.71^(3) 6.93-6.47 7.24^(4) 7.44-7.06

Compound: CN(C)[C@@H]1Cc2ccccc2[C@H](c2cccc(-c3ccncc3)c2)C1 (single isomer, unassigned) [(2S,4S)-3e, Cis-4-(3-(pyridin-4-yl)phenyl)-N,N-dimethyl-1,2,3,4-tetrahydronaphthalen-2-amine]
- pKi 5-HT2AR (5-HT2AR): 6.06^(2) 6.14-5.98 8.13^(3) 8.51-7.82 5.81^(2) 6.01-5.62 7.36^(2) 7.48-7.24
- pKi 5-HT2CR (5-HT2CR [2]): 5.90^(2) 5.99-5.80 7.37^(3) 7.44-7.27 5.61^(2) 5.69-5.54 6.26^(2) 6.42-6.10

Compound: O=C(CCCN1CCC2(CC1)C(=O)NCN2c1ccccc1)c1ccc(F)cc1 [[^3H]Spiperone]
- specific binding to D231F^5.35 5-HT2ARs (D231F^5.35 5-HT2AR): no specific binding is detected

Compound: CN(C)[C@H]1Cc2ccccc2[C@H](c2cccc(-c3cccs3)c2)C1 [(2R,4S)-2c, (2R,4S)-trans-4-(3-(thiophen-2-yl)phenyl)-N,N-dimethyl-1,2,3,4-tetrahydronaphthalen-2-amine]
- pKi H1R (H1R): 6.90
- Ki (5-HT2AR): 0.0195 µM
- Ki (5-HT2CR [3]): 0.0331 µM
- agonist activity at 5-HT2CRs, concentration-response (human wild-type 5-HT2C; FIG. 7B): no consistent effect on IP1-accumulation
- Ki (5-HT2BR [4]): 0.214 µM

Compound: CN(C)[C@@H]1Cc2ccccc2[C@H](c2cccc(-c3ccncc3)c2)C1 (single isomer, unassigned) [(2R,4R)-3e, Cis-4-(3-(pyridin-4-yl)phenyl)-N,N-dimethyl-1,2,3,4-tetrahydronaphthalen-2-amine]
- Ki (H1R; pKi H1R, displacement of [^3H]mepyramine, mean of n independent experiments, ± SD where n ≥ 5): 0.0224 µM
- Ki (5-HT2AR; [9]): 0.0437 µM
- pKi 5-HT2CR (5-HT2CR [2]): 5.90^(2) 5.99-5.80 7.37^(3) 7.44-7.27 5.61^(2) 5.69-5.54 6.26^(2) 6.42-6.10

Compound: CN(C)[C@@H]1Cc2ccccc2[C@@H](c2cccc(-c3ccncc3)c2)C1 (single isomer, unassigned) [(2R,4S)-2e, Trans-4-(3-(pyridin-4-yl)phenyl)-N,N-dimethyl-1,2,3,4-tetrahydronaphthalen-2-amine]
- pKi 5-HT2AR (5-HT2AR): 6.06^(2) 6.14-5.98 8.13^(3) 8.51-7.82 5.81^(2) 6.01-5.62 7.36^(2) 7.48-7.24
- pKi 5-HT2CR (5-HT2CR [2]): 5.90^(2) 5.99-5.80 7.37^(3) 7.44-7.27 5.61^(2) 5.69-5.54 6.26^(2) 6.42-6.10

Compound: CN(C)c1ccc(-c2cccc([C@H]3C[C@H](N(C)C)Cc4ccccc43)c2)cc1 [(2S,4R)-2k, Trans-4-(4′-(dimethylamino)-[1,1′-biphenyl]-3-yl)-N,N-dimethyl-1,2,3,4-tetra-hydronaph-thalen-2-amine]
- pKi D2L (D2L): 5.70^(3)
- pKi D3 (D3): 6.92^(3)
- pKi 5-HT7 (5-HT7): 6.28^(3)
- pKi 5-HT1A (5-HT1A): 5.58^(3)
- locomotor activity, compound administered alone (male C57BL/6J mice [5]): preserving general locomotor ability
- head twitch response elicited by (±)-DOI (male C57BL/6J mice [6]): significantly attenuated the head twitch response
- inverse agonist efficacy (Imax) at 5-HT2CRs (human wild-type 5-HT2C): ~75%
- Ki (5-HT2BR [7]; pKi at the 5-HT2BR, single experiment excluded from the reported data, excluded: excessive or incomplete radioligand displacement): 0.0479 µM
- Ki (5-HT2BR [4]): 0.0794 µM
- Ki (α1B-adrenergic receptor): 0.646 µM
- pKb at 5-HT2BRs (human wild-type 5-HT2B): 5.59±0.50
- partial agonist efficacy at 5-HT2BRs, exploratory screening (human wild-type 5-HT2B; 10 μM ligand, change from basal IP1 normalized to 5-HT (FIG. 2A)): ~13 % 5-HT
- agonist activity at 5-HT2BRs, full concentration-response (human wild-type 5-HT2B; FIG. 7A): did not reach statistical significance
- inverse agonist efficacy at C322K^6.34 5-HT2ARs (reduction of basal IP1 accumulation) (C322K^6.34 5-HT2AR): ~60%
- Ki (α1A-adrenergic receptor): 0.617 µM

Compound: CN(C)[C@@H]1Cc2ccccc2[C@@H](c2cccc(-c3cccs3)c2)C1 (single isomer, unassigned) [(2S,4R)-2c, Trans-4-(3-(thiophen-2-yl)phenyl)-N,N-dimethyl-1,2,3,4-tetrahydronaphthalen-2-amine]
- Ki (5-HT2CR [8]): 0.0038 µM
- Ki (H1R; read-out: pKi H1R (converted)): 0.00115 µM
- Ki (5-HT2AR): 0.00214 µM
- IC50 (human wild-type 5-HT2C): 0.251 µM
- inverse agonist efficacy (Imax) at 5-HT2CRs (human wild-type 5-HT2C; below basal): 58%
- Ki (5-HT2BR [1]): 0.0794 µM
- Ki (5-HT2CR [2]; pKi at the 5-HT2CR, single experiment excluded from the reported data, excluded: excessive or incomplete radioligand displacement): 0.000832 µM

Compound: CN(C)[C@@H]1Cc2ccccc2[C@H](c2cccc(-c3ccccc3F)c2)C1 (single isomer, unassigned) [(2R,4R)-3g, Cis-4-(2′-fluoro-[1,1′-biphenyl]-3-yl)-N,N-dimethyl-1,2,3,4-tetrahydronaphthalen-2-amine]
- pKi H1R (H1R): 6.93^(2) 7.02-6.84 8.75^(4) 9.1-8.62 ND 6.54^(2) 6.67-6.40
- Ki (5-HT2AR; [9]): 0.00204 µM
- pKi 5-HT2BR (5-HT2BR [7]): 7.36^(2) 7.36-7.35 7.09^(3) 7.23-6.90 6.53^(3) 6.71-6.30 6.33^(2) 6.49-6.17

Compound: CN(C)[C@@H]1Cc2ccccc2[C@H](c2cccc(-c3ccccc3)c2)C1 [(2S,4S)-3f, (2S,4S)-cis-4-([1,1′-biphenyl]-3-yl)-N,N-dimethyl-1,2,3,4-tetrahydronaphthalen-2-amine]
- Ki (5-HT2CR [3]): 0.151 µM
- Ki (5-HT2BR [4]): 0.407 µM
